We go through two compounds from PMC4305287, “Two Novel α7 Nicotinic Acetylcholine Receptor Ligands: In Vitro Properties and Their Efficacy in Collagen-Induced Arthritis in Mice” (PLoS ONE, 2015).

Series [1] concerns the target rat α7 nAChR (Rattus norvegicus, UniProt Q05941). Nature of the series: cell-based. It counts as binding.
Method: Binding studies with rat α7 nAChR were done using the rat pheochromocytoma cell line PC12 that endogenously expresses the α7 nAChR (American Type Culture Collection, Manassas, VA). PC12 cells were maintained in Ham F-12 nutrient mixture, containing 15% horse serum, 2.5% fetal bovine serum (FBS), 2 mM L-glutamine, 1.5 g/L NaHCO3, 100 units of penicillin, and 100 μg streptomycin.
For the binding assay, PC12 cells were resuspended in binding buffer (phosphate buffered saline with calcium and magnesium, containing 1% FBS and 0.02% NaN3) at 1.5 to 2.7 × 10^6 cells per ml and 55 μl (0.8–1.5 × 10^5 cells per well) was added to a 96-well, v-bottom plate. […]
Phycoerythrin-labeled streptavidin (streptavidin-PE) (Becton-Dickinson, Franklin Lakes, NJ) was diluted in binding buffer and 50 μl was added to the cells (excluding the cell control) at a 1.0 μg/ml final concentration. […] BTx binding was quantified by fluorescence-activated cell sorting (FACS) analysis. For each concentration of test compound, the displacement of BTx from the α7 nAChR was quantified by measuring the intensity of the fluorescent signal. […] Ki values were calculated from IC50 values using the Cheng-Prusoff equation: Ki=IC50/1+[BTx]/KD
In series [2] the target is T1, α4β2 nAChR (Rattus norvegicus, UniProt P09483+P12390).
T1 construct: tissue Cerep; host or cells: rat brain membranes
In words: cytisine binding to rat brain membranes. Particulars: read-out: Ki, α4β2nAChR binding affinity. How it is done: (§1) Broad selectivity was assessed at Cerep (Celle l’ Evescault, France), as described in the Cerep catalog, though the determination of the effect of PMP-311 and PMP-072 in in vitro radioligand receptor binding assays with 52 different receptors, channels, and transporters. The specific ligand binding to the receptors is defined as the difference between the total binding, and the nonspecific binding determined in the presence of an excess of unlabelled ligand. The results are expressed as a percent of control specific binding and as the mean percent inhibition of control specific binding obtained in the presence of 10 μM PMP-311 and PMP-072. Individual and mean values are presented in the results section. The IC50 values (concentration causing a half-maximal inhibition of control specific binding) and Hill coefficients (nH) were determined by non-linear regression as described above.

For series [3], the target named is T2, α1β1 nAChR (muscle receptor) (Homo sapiens, UniProt P02708+P07510+P11230+Q07001).
T2 construct: host or cells: TE671 cell membranes
T2 sequence (P02708 21-457): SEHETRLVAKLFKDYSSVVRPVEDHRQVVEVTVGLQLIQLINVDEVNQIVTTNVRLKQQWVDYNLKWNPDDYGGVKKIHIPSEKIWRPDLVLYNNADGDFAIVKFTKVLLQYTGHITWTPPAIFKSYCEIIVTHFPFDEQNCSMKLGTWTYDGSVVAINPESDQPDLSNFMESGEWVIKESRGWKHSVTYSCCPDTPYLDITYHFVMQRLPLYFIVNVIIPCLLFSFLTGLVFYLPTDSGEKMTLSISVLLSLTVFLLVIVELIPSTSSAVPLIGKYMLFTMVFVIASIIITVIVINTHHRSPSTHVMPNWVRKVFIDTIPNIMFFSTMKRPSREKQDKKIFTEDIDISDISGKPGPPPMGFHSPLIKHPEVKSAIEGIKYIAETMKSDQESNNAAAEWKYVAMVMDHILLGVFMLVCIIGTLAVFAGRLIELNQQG
T2 sequence (Q07001 22-517): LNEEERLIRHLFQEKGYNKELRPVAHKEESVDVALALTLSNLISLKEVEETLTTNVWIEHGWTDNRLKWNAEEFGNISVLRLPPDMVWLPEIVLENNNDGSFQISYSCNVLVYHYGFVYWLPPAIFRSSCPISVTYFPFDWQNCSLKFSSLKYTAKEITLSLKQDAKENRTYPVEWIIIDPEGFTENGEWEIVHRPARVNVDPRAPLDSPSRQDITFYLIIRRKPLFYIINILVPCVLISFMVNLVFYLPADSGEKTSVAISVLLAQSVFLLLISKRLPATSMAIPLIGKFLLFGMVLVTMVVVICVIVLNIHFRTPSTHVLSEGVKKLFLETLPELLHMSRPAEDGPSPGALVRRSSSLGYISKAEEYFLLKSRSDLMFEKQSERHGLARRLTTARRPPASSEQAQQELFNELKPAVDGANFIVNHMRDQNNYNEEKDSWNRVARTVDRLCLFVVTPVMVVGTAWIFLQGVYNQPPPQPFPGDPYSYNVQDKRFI
T2 sequence (P07510 23-517): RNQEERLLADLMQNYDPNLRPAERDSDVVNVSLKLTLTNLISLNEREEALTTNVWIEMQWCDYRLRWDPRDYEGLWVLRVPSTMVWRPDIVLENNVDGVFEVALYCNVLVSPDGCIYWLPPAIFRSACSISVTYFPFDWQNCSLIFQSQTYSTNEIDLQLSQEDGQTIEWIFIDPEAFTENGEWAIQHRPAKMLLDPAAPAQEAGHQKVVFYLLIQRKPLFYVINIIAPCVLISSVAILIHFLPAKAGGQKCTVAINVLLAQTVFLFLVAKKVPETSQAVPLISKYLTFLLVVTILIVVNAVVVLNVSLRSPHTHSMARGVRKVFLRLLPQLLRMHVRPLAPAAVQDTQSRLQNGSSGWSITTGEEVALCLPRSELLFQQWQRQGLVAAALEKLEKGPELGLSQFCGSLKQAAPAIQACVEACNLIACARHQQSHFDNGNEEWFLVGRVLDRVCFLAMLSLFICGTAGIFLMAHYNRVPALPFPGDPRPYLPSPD
T2 sequence (P11230 24-501): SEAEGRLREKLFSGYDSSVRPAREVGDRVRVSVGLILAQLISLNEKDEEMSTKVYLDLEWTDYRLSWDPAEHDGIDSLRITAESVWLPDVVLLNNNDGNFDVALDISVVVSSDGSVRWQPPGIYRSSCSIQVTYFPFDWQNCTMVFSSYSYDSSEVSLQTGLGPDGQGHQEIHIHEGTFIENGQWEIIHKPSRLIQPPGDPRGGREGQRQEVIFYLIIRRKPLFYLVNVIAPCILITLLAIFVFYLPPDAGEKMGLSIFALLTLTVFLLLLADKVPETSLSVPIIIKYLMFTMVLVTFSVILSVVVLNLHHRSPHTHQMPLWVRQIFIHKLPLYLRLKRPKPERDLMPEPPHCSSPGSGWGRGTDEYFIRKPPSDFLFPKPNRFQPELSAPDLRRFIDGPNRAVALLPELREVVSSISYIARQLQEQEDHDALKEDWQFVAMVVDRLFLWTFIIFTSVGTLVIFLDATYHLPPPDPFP
Nature of the series: α-bungarotoxin binding to TE671 cell membranes. How it is done:
as §1

The nature of series [4]: pharmacokinetics in CD1 mice. It counts as in vivo, mouse. The note with it: for Kp at 30 min: CD1, mouse, brain, read-out: Brain penetration; for Kp at 30 min / Brain penetration: relative to plasma level 30 min after 1 mg/kg IV; for bioavailability: read-out: %F (bioavailability). How it is done:
Pharmacokinetic studies were carried out at Cerep using non-cannulated, non-fasted CD1 mice (Charles River Laboratories, Wilmington, MA). PMP-311 or PMP-072 were formulated in phosphate buffered saline (PBS), pH 7.4, as a clear solution and 1 mg/kg was administered by bolus intravenous (IV) injection or 5 mg/kg by oral gavage. Plasma samples were obtained from 3 mice per time point at 15, 30, 60, 120, 240, 360, 480 and 1440 min post-dose. The plasma samples were processed using acetonitrile precipitation and analyzed by HPLC-MS or HPLC-MS/MS to determine the concentration of drug as compared to a plasma calibration curve (aliquots of drug-free plasma were spiked with the test compound at the specified concentration levels and processed together with the unknown plasma samples using the same procedure). The processed plasma samples were stored frozen (−20°C) until the HPLC-MS/MS analysis. Peak areas were recorded, and the concentrations of the test compound in the unknown plasma samples were determined using the respective calibration curve. The reportable linear range of the assay was determined, along with the lower limit of quantitation (LLQ).
Plots of plasma concentration of compound versus time were constructed. The fundamental pharmacokinetic parameters of compound after oral and IV dosing (Cmax: maximum concentration, Tmax: time to maximum concentration, T1/2: terminal elimination half-life, AUC: area under the curve, CI: clearance, Vd: volume of distribution, and %F: bioavailability) were obtained from the non-compartmental analysis of the plasma data using WinNonlin (Pharsight, St. Louis, MO).

Series [5] has as its system T3, human α7 nAChR primed with PNU-120596.
T3 construct: expressed in transfected cells; host or cells: Xenopus laevis oocytes injected with cRNA; clones from Dr. Jon Lindstrom (α7) and Dr. Millet Treinin (RIC-3)
Nature of the series: electrophysiology of oocytes primed with PNU-120596. It counts as biochemical. The note with it: after 60 s priming with 300 μM PNU-120596; PMP-311 1 μM, PMP-072 10 μM, MLA 10 μM. The protocol: Each oocyte received two initial control applications of 300 μM ACh, followed by the experimental drug application, and subsequent control application of 300 μM ACh, unless otherwise indicated. Responses to experimental drug applications were determined relative to the preceding ACh control responses in order to normalize the data, compensating for the varying levels of channel expression among the oocytes. Responses for α7 nAChR were calculated as net charge, since peak currents inaccurately report the agonist concentration dependence of α7 nAChR-mediated responses. […] Imax, n, and the EC50 were all unconstrained for the fitting procedures except in the case of the ACh concentration-response curves.

Series [6] concerns the target T4, α4β2 nAChR (Homo sapiens, UniProt P17787+P43681).
T4 construct: expressed in transfected cells; host or cells: Xenopus laevis oocytes injected with subunit cRNAs; clones from Dr. Jon Lindstrom
In words: ion channel assay on α4β2 nAChR in Xenopus oocytes. Particulars: data not shown. It counts as biochemical. The protocol:
Human nAChR receptor clones were obtained from Dr. Jon Lindstrom (University of Pennsylvania, Philadelphia, PA). The RIC-3 clone was obtained from Dr. Millet Treinin (Hebrew University, Jerusalem, Israel). Subsequent to linearization and purification of cloned cDNAs, RNA transcripts were prepared in vitro using the appropriate mMessage Machine kit from Ambion Inc. (Austin, TX).
The preparation of Xenopus laevis oocytes for RNA expression was conducted as previously described. Stage 5 oocytes were isolated and injected with […] (5–20 ng) of each subunit cRNAs. Recordings were conducted 2–5 days after injection. […]
Each oocyte received two initial control applications of 300 μM ACh, followed by the experimental drug application, and subsequent control application of 300 μM ACh, unless otherwise indicated. Responses to experimental drug applications were determined relative to the preceding ACh control responses in order to normalize the data, compensating for the varying levels of channel expression among the oocytes. Responses for α7 nAChR were calculated as net charge, since peak currents inaccurately report the agonist concentration dependence of α7 nAChR-mediated responses. […]

Setting [7] is: CD1, plasma, mouse, 5 mg/kg oral.

Molecules are shown by their SMILES. Where “and” joins values, the source holds several entries; their conditions need not be identical. Equal values may be shown once. Read-outs that look alike come from different tables or passages of the source.

T1 sequence (P09483 31-630): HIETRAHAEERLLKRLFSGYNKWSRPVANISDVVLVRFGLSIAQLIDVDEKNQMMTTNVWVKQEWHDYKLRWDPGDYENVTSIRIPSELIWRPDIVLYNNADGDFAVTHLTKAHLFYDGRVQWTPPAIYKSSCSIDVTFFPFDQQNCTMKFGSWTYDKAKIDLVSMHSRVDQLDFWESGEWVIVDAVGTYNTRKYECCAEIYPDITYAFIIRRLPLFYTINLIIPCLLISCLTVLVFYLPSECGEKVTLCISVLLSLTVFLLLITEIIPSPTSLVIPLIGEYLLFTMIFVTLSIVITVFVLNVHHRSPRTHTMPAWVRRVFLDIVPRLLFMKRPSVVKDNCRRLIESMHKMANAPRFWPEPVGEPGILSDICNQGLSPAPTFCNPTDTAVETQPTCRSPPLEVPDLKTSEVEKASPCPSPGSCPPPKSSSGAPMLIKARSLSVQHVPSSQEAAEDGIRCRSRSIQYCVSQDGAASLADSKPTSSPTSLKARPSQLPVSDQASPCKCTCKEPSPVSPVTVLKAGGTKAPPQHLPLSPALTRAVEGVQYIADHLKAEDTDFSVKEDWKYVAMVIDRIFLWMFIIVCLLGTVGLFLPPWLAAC
T1 sequence (P12390 25-500): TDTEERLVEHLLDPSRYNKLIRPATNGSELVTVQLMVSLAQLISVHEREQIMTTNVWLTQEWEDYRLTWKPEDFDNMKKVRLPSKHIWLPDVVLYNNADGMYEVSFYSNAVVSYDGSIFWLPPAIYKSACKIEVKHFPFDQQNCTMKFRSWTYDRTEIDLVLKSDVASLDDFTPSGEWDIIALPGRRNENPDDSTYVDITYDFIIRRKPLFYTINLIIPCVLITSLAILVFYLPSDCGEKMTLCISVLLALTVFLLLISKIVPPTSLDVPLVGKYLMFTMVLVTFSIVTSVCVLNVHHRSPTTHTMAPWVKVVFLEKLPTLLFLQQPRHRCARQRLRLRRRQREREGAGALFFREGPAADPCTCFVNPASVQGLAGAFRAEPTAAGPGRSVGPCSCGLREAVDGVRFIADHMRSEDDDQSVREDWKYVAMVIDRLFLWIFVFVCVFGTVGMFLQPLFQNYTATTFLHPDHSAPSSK
T4 sequence (P43681 29-627 limits assumed): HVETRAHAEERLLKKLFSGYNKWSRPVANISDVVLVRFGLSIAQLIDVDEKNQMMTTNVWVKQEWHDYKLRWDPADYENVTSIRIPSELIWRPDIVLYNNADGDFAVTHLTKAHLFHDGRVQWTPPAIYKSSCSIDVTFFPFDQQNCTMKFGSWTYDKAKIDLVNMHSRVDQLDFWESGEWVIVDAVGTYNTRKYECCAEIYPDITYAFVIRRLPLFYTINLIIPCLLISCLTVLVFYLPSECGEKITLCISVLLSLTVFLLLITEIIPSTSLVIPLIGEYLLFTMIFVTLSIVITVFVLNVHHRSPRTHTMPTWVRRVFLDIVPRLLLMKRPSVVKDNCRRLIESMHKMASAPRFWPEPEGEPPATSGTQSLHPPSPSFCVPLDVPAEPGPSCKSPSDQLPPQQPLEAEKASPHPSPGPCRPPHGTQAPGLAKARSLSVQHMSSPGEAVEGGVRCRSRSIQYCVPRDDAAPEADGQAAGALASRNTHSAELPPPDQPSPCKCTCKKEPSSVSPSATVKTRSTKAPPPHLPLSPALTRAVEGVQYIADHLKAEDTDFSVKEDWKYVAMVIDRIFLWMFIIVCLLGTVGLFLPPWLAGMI
T4 sequence (P17787 26-502): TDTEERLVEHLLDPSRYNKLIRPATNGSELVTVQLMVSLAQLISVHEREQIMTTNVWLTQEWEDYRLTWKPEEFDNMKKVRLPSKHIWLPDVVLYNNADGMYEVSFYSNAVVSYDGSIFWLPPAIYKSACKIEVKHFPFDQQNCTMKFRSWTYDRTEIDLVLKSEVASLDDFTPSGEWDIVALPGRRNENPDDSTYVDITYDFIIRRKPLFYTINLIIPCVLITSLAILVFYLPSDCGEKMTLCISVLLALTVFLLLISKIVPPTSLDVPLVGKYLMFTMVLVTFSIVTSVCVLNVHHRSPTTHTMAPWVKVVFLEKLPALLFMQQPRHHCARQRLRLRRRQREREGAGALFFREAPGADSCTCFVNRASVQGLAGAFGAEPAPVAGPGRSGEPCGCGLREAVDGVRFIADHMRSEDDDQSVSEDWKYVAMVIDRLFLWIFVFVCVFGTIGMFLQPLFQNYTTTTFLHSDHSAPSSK
Chain of rat α7 nAChR (Q05941 23-502): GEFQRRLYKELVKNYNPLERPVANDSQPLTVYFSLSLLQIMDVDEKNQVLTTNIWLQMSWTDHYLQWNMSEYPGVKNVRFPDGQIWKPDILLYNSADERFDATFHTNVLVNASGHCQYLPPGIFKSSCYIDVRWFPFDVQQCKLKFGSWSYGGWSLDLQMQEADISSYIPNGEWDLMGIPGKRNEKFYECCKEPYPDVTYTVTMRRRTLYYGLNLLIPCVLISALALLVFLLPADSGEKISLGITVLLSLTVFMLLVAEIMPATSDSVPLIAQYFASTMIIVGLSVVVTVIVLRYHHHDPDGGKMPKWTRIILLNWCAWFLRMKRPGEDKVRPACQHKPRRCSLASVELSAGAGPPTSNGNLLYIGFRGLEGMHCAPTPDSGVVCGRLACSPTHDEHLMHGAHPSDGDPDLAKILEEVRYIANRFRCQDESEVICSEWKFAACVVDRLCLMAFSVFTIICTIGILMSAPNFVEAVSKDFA

With `COc1ccc(NC(=O)N2CCNC[C@@H]2COc2cccnc2)cc1` [PMP-072, (R)-N-(4-methoxyphenyl)-2-((pyridin-3-yloxy)methyl)piperazine-1-carboxamide], in series [1], the Ki worked out at 6.9 ± 1.4 nM. Besides, the Ki in series [2] is greater than 100000 nM. The inhibition constant (Ki) in series [3] is greater than 100000 nM. In addition, in series [4], the Kp at 30 min came to 0.06 and the Brain penetration is 6%. In series [4] (CD1, plasma, mouse, 1 mg/kg IV), the Vd turned out to be 5.83 L/kg and the half-life turned out to be 39 min. In series [4] (setting [7]), the AUC is 588 ng·h/mL; the maximum concentration (Cmax) is 324 ng/mL and 940 nM; the Tmax was 30 min; the bioavailability was 76%. This compound registered a Cl in series [4] (mouse, 1 mg/kg IV) of 103 mL/min/kg. Further, the T1/2 in series [4] (mouse, 5 mg/kg oral) worked out at 104 min. For the same compound, in series [5], the “ion channel response of PNU-120596 primed cells” value is listed as “able to activate large ion channel currents”.
In turn, `c1cncc(OC[C@@H]2CNCCN2c2nc3ncccc3o2)c1` [PMP-311, (S)-2-(2-((Pyridin-3-yloxy)methyl)piperazin-1-yl)oxazolo[4,5-b]pyridine] gave a Ki in series [1] of 0.9 ± 0.2 nM. The Ki in series [2] came out at 30 nM. This compound also yielded a Ki in series [3] greater than 100000 nM. The IC50 in series [6] (read-out: IC50, antagonist of α4β2 nAChR) is roughly 20 nM. Also, the IC50 in series [6] (ion channel assay, read-out: IC50, inhibition of α4β2 nAChR) was less than 1000 nM. In addition, in series [4], the Kp at 30 min turned out to be 0.44 and the Brain penetration is given as 44%. In series [4] (CD1, plasma, mouse, 1 mg/kg IV), the Vd came to 1.94 L/kg, the clearance was found to be 72 mL/min/kg and the half-life was 19 min. Besides, in series [4] (setting [7]), the AUC was 567 ng·h/mL; the Cmax was 787 ng/mL and 2.5 µM; the Tmax was 15 min; the half-life was 98 min. Further, in series [4] (setting [7]), the bioavailability was 50%.
